Experimental data reported in the NIST ThermoML archive (doi:10.1021/je500977g).

Assay: mn = molality of the nth substance listed, in mol/kg
Settings: Liquid

C[N+](C)(C)[O-] [trimethylamine oxide] + O
mass density [kg/m3]
Settings | 308.15 K | 323.15 K
101 kPa, Vibrating tube method, m1 = 0.0875 | – | 988.2
101 kPa, Vibrating tube method, m1 = 0.1707 | – | 988.37
101 kPa, Vibrating tube method, m1 = 0.2465 | – | 988.53
101 kPa, Vibrating tube method, m1 = 0.3259 | – | 988.7
101 kPa, Vibrating tube method, m1 = 0.4018 | – | 988.86
101 kPa, Vibrating tube method, m1 = 0.5862 | – | 989.27
101 kPa, Vibrating tube method, m1 = 0.7963 | – | 989.75
101 kPa, Vibrating tube method, m1 = 1.039 | – | 990.34
101 kPa, Vibrating tube method, m1 = 1.373 | – | 991.15
101 kPa, Vibrating tube method, m1 = 1.923 | – | 992.62
101 kPa, Vibrating tube method, m1 = 3.259 | – | 996.37
101 kPa, Vibrating tube method, m1 = 4.325 | – | 999.45
10000 kPa, Constant-volume piezometry, m1 = 0.1707 | – | 992.59
10000 kPa, Constant-volume piezometry, m1 = 0.3259 | – | 992.87
10000 kPa, Constant-volume piezometry, m1 = 0.5862 | – | 993.35
10000 kPa, Constant-volume piezometry, m1 = 1.039 | – | 994.29
10000 kPa, Constant-volume piezometry, m1 = 1.373 | – | 995.02
10000 kPa, Constant-volume piezometry, m1 = 1.923 | – | 996.38
10000 kPa, Constant-volume piezometry, m1 = 3.259 | – | 999.89
10000 kPa, Constant-volume piezometry, m1 = 4.325 | – | 1002.81
25000 kPa, Constant-volume piezometry, m1 = 0.1707 | – | 998.81
25000 kPa, Constant-volume piezometry, m1 = 0.3259 | – | 999.01
25000 kPa, Constant-volume piezometry, m1 = 0.5862 | – | 999.37
25000 kPa, Constant-volume piezometry, m1 = 1.039 | – | 1000.14
25000 kPa, Constant-volume piezometry, m1 = 1.373 | – | 1000.75
25000 kPa, Constant-volume piezometry, m1 = 1.923 | – | 1001.93
25000 kPa, Constant-volume piezometry, m1 = 3.259 | – | 1005.1
25000 kPa, Constant-volume piezometry, m1 = 4.325 | – | 1007.83
50000 kPa, Constant-volume piezometry, m1 = 0.1707 | – | 1008.75
50000 kPa, Constant-volume piezometry, m1 = 0.3259 | – | 1008.83
50000 kPa, Constant-volume piezometry, m1 = 0.5862 | – | 1009.01
50000 kPa, Constant-volume piezometry, m1 = 1.039 | – | 1009.49
50000 kPa, Constant-volume piezometry, m1 = 1.373 | – | 1009.9
50000 kPa, Constant-volume piezometry, m1 = 1.923 | – | 1010.79
50000 kPa, Constant-volume piezometry, m1 = 3.259 | – | 1013.38
50000 kPa, Constant-volume piezometry, m1 = 4.325 | – | 1015.77
75000 kPa, Constant-volume piezometry, m1 = 0.1707 | – | 1018.2
75000 kPa, Constant-volume piezometry, m1 = 0.3259 | – | 1018.18
75000 kPa, Constant-volume piezometry, m1 = 0.5862 | – | 1018.19
75000 kPa, Constant-volume piezometry, m1 = 1.039 | 1024.68 | 1018.41
75000 kPa, Constant-volume piezometry, m1 = 1.373 | 1024.9 | 1018.64
75000 kPa, Constant-volume piezometry, m1 = 1.923 | 1025.43 | 1019.23
75000 kPa, Constant-volume piezometry, m1 = 3.259 | 1027.51 | 1021.32
75000 kPa, Constant-volume piezometry, m1 = 4.325 | 1029.5 | 1023.38
100000 kPa, Constant-volume piezometry, m1 = 0.1707 | 1033.77 | 1027.22
100000 kPa, Constant-volume piezometry, m1 = 0.3259 | 1033.59 | 1027.09
100000 kPa, Constant-volume piezometry, m1 = 0.5862 | 1033.39 | 1026.94
100000 kPa, Constant-volume piezometry, m1 = 1.039 | 1033.25 | 1026.92
100000 kPa, Constant-volume piezometry, m1 = 1.373 | 1033.26 | 1027
100000 kPa, Constant-volume piezometry, m1 = 1.923 | 1033.48 | 1027.3
100000 kPa, Constant-volume piezometry, m1 = 3.259 | 1034.99 | 1028.88
100000 kPa, Constant-volume piezometry, m1 = 4.325 | 1036.64 | 1030.78
